Patent publication US7671054B1, “Reverse-turn mimetics and method relating thereto” (Choongwae Pharma Corporation, priority 2001, dated 2010)
“Also recorded” adds a separate entry of the source.

Experiments:
survivin protein = test: Western blot analysis of survivin; format: cell-based
[1] = tested on: caspase-3/7 in SW480 cells; test: Caspase-3/7 activity assay; format: cell-based; details: 25 μM, 24 hours, compared to CCD18Co cells
Protocol: (§1) SW480, HCT116, and CCD18Co cells were plated at 10^5 cells per well (96-well plates) for 24 hours prior to treatment. […] 24 hours post treatment, cells were lysed and caspase activity was measured using a caspase-3/7 activity kit (Apo-One Homogeneous caspase-3/7 assay, #G77905, Promega). Relative fluorescence units (RFU) were obtained by subtracting the unit values of the blank (control, without cells) from the experimental measured values.

[2] = tested on: caspase-3/7 in HCT116 cells; test: Caspase-3/7 activity assay; format: cell-based; details: 25 μM, 24 hours, compared to CCD18Co cells
Protocol: as §1

SW480 cells [3] = test: Soft agar colony formation assay; format: cell-based
Protocol: The soft agar colony formation assay was conducted with SW480 cells by some modification of the procedure previously described (Moody et al., “A vasoactive intestinal peptide antagonist inhibits non-small cell lung cancer growth,” Proc. Natl. Acad. Sci. USA. 90:4345-49 (1993)).
Each well (35 mm) of a 6-well plate (Nalge Nunc International, Roskide, Denmark) was coated with 1 ml of 0.8% bottom agar in DMEM medium containing 10% fetal bovine serum. After it was solidified, 1 ml of DMEM medium containing 0.4% top agar, 10% fetal bovine serum, compound doubly concentrated, and 5,000 single viable cells was added to each well. The cultures were incubated at 37° C. in humidified 5% CO2 incubator. Colonies in soft agar were monitored daily and photographed after incubation for 8 days. Colonies>60 μm in diameter were counted.

[4] = target: β-catenin/CBP interaction (Homo sapiens, UniProt Q92793); details: Emami et al., Cancer Cell, in press; cited from earlier work
[5] = tested on: Ephrin B2 (EphB2) receptor in PC-12 PS-1/L286V cells; test: EphB2 receptor expression (immunofluorescence and RT-PCR); format: cell-based, Rat; details: PS-1/L286V mutant PC-12 cells; 10 μM
Protocol: Immunofluorescence. Cells were plated at a density of 10,000 cells/cm^2 on sterile coated 22×22 mm coverslips in a 6-well culture plate. Differentiation was initiated, as previously described, for 10 days. The differentiated cells were then fixed in methanol for 15 minutes at −20° C. This is followed by a 15 minutes incubation with PBS+0.1% Triton X-100. The coverslips were incubated with antibodies raised against Ephrin B2 Receptor (Santa Cruz Biotechnology) and Gap-43 (Novus Biologicals) for 40 minutes at 37° C. After a series of washes with PBS-Triton X-100, secondary antibody conjugated to FITC (Jackson ImmunoResearch, Westgrove, Pa.) was applied. All slides images were acquired using a Nikon PCM2000 Laser Scanning Confocal Microscope mounted on a Nikon Eclipse E600 upright microscope (Nikon, Melville, N.Y.).
RT-PCR. To analyze the mRNA levels for Ephrin B2 (EphB2) receptor, total RNA was isolated using Trizol (Invitrogen-GIBCO-BRL, Baltimore, Md.) from differentiated cells. 2 μg RNA was reverse transcribed in a total volume of 20 μl with random hexamer (50 ng), and using the Superscript II reverse transcription system (Invitrogen-GIBCO-BRL), according to manufacturer's guidelines. PCR was carried out in a 50 μl volume containing 5 μl cDNA, 100 pmol primers, 100 μM dNTPs, 1×Taq buffer and 1.5 mM MgCl2. […]

survivin in SW480 cells = test: Survivin immunofluorescence microscopy; format: cell-based
SW480 cells [6] = test: Flow cytometric analysis (FACS) of cell cycle; format: cell-based; details: 25 μM, 24 hours
Protocol: (§2) For FACS analysis, approx. 5×10^6 cells from Compound D-treated or vehicle-treated were fixed with 70% chilled ethanol and stored at −20° C. for at least 30 minutes. The cells were washed once with 1×PBS and incubated with propidium iodine (PI) solution (85 μg/ml propidium iodine, 0.1% Nonidet P-40, 10 mg/ml RNAse) for 30 minutes at room temperature. 10,000 stained cells for each sample were acquired using Beckman Coulter EPICS XL-MCL Flow Cytometry and the percentage of cells in different phase of the cell cycle was determined by Expo32 ADC software (Coulter Corporation, Miami, Fla., 33196).
(§3) It has been shown that inhibition of the expression of the cyclin D1 gene causes arrest at the G1/S-phase of the cell cycle (Shintani et al., “Infrequent alternations of RB pathway (Rb-p16INK4A-cyclin D1) in adenoid cystic carcinoma of salivary glands,” Anticancer Res. 20:2169-75 (2000)). […] The cells were subsequently stained with propidium iodide (PI) and analyzed for DNA content by FACS cytofluorometry.

HCT116 cells = test: Flow cytometric analysis (FACS) of cell cycle; format: cell-based; details: 25 μM, 24 hours
Protocol: as §2, §3

[7] = tested on: PC-12 cells overexpressing mutant PS-1/L286V; test: Neuronal differentiation and quantitation of neurite outgrowth; format: cell-based, Rat; details: PS-1/L286V mutant PC-12 cells
Protocol: Cell Differentiation. Cell culture dishes were pre-coated overnight with 0.25 mg/ml collagen (Cohesion, Calif.), 10 μg/ml Poly-L-Lysine (Sigma-Aldrich, St. Louis, Mo.) and 12 μg/ml Polyethyleneimine (ICN, La Mesa, Calif.). Cells were cultured on coated dishes at 15,000 cells/cm^2, and differentiated into a neuron-like phenotype by incubation in medium with reduced serum (1% fetal bovine serum), containing 50 ng/ml nerve growth factor (NGF) (Sigma-Aldrich) for 10 days. NGF-containing medium was changed every 2-3 days.
Differentiated PC-12/L286V cells were treated with increasing concentrations of this compound for 4 hours. Transfection was then initiated after this treatment period.
Quantitation of Neurite Outgrowth. Cell counts were taken from six randomly chosen microscopic fields (10×). […] The number of cells with such outgrowths was then expressed as a percentage of the total number of cells. Values obtained were from duplicates of three independent experiments.

cultured tumor cells = test: Cell death of cultured tumor cells; format: cell-based; details: 5.0 μM
caspase 2 = test: Caspase 2 activity in cultured tumor cells; format: cell-based; details: co-treatment of stausporine (0.5 μM) and Compound D

β-catenin/CBP interaction, sequence (Q92793 whole entry): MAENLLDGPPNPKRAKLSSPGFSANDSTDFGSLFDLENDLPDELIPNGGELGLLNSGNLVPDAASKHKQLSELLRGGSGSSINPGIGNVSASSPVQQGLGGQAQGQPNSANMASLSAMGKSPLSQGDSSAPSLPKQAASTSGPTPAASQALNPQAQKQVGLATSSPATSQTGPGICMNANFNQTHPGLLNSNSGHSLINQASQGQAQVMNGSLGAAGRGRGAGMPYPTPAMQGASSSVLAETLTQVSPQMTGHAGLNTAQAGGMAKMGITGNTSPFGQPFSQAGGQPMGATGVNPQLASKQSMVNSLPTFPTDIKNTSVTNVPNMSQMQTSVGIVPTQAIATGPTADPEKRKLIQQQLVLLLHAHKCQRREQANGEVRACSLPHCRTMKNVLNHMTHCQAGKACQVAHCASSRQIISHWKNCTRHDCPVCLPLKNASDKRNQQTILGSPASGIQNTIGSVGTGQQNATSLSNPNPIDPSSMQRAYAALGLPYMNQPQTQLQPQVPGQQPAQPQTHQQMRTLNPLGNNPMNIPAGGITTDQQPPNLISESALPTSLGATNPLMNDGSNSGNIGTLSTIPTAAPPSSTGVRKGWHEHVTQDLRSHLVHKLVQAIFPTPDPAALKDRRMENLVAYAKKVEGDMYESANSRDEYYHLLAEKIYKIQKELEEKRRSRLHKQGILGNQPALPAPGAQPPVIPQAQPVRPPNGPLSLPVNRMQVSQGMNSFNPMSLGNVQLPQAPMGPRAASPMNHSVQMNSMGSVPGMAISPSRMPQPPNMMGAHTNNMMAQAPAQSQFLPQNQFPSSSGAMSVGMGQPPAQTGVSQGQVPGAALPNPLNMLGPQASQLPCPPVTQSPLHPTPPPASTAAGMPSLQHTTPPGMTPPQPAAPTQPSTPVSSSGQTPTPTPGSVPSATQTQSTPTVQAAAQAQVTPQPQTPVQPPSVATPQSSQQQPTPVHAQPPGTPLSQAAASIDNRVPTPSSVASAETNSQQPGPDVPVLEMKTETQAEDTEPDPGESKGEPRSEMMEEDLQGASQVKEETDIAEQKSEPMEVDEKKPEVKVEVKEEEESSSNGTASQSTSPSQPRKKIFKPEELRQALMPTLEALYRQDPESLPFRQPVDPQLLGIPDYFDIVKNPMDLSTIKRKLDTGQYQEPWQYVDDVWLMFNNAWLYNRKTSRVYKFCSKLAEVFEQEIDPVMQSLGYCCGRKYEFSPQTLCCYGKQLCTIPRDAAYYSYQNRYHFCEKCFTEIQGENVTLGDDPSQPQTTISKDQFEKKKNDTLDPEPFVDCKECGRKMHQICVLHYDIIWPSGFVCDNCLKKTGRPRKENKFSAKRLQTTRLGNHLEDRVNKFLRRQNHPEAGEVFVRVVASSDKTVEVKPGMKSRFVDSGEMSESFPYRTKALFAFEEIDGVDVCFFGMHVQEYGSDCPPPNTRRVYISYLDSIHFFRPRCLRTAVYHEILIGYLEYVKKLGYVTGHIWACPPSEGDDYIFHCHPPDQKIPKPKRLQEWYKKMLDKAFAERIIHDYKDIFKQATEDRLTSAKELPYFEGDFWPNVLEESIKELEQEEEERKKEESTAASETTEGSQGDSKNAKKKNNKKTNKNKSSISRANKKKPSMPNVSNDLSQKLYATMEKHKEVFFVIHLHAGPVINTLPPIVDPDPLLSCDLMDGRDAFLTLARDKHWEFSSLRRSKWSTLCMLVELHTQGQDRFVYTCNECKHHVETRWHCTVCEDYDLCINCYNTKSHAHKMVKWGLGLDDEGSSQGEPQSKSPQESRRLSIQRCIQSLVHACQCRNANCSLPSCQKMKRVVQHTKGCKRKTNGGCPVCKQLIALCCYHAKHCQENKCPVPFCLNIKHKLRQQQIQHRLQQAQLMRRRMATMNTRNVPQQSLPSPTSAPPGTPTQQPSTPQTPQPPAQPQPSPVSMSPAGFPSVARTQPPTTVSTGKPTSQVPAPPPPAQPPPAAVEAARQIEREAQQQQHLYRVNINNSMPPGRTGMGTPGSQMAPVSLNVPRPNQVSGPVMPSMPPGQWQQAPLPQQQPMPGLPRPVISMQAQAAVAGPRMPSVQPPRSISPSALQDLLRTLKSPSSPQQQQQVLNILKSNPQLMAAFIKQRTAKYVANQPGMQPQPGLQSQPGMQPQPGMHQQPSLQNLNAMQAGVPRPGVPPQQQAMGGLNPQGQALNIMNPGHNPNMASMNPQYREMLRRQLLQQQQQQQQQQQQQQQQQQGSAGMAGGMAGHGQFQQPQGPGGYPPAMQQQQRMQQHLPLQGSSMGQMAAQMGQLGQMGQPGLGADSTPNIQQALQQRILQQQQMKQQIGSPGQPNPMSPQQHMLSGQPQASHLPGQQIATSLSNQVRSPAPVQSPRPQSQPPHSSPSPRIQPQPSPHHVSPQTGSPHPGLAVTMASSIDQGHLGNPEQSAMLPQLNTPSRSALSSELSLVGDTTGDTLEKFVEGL

O=c1[nH]cc(F)c(=O)[nH]1 [Compound 5-FU, 5-fluorouracil]
amount of survivin protein (Western blot) (survivin protein; 5 μM): reduced the amount of the survivin protein

O=C1[C@H](Cc2ccc(O)cc2)N2C(=O)CCN(C(=O)NCc3ccccc3)[C@H]2CN1Cc1cccc2ccccc12 [Compound D]
caspase-3/7 activity [1]: selectively activates caspases in colon carcinoma cell lines
caspase-3/7 activity [2]: selectively activates caspases in colon carcinoma cell lines
number of colonies formed in soft agar (SW480 cells [3]; 0.25-5 μM): reduces colony growth in soft agar in a dose dependent manner
IC50 (SW480 cells [3]; Homo sapiens, 192 h, 8 days, colonies >60 μm): 870 ± 110 nM
β-catenin/CBP interaction [4]: selectively blocks the β-catenin/CBP interaction
EphB2 message (RT-PCR) [5]: increased EphB2 message; also recorded: upregulates EphB2 message
EphB2 receptor expression (immunofluorescence) [5]: increased EphB2 receptor expression
survivin protein (immunofluorescence microscopy) (survivin in SW480 cells): little or no survivin protein was detected
cell cycle distribution (PI, FACS) (SW480 cells [6]): increased accumulation at G1/S-phase of the cell cycle; also recorded: arrests cells in G1
cell cycle distribution (PI, FACS) (HCT116 cells): increased accumulation at G1/S-phase of the cell cycle; also recorded: arrests cells in G1
amount of survivin protein (Western blot) (survivin protein; 10 μM): reduced the amount of the survivin protein
amount of survivin protein (Western blot) (survivin protein; 25 μM): reduced the amount of the survivin protein
percentage of cells bearing neurites greater than twice the length of the cell body ([7]; 10 μM): substantially increased the percentage of cells bearing neurites; also recorded: significantly increased
neurite outgrowth and differentiation ([7]; 10 μM plus NGF, 10 days): essentially normal neurite outgrowth and differentiation; also recorded: phenotypically corrects deficient neuronal differentiation
cell death (cultured tumor cells): promotes cell death
caspase 2 activity, co-treatment (caspase 2): not a synergic stimuation of the caspase 2 activity
